Consider 19 compounds from patent US5593970A, “Heterocyclic anthracycline analogs” (priority 1994, dated 1997).

Structures are written as SMILES. Where two headings read alike, the source gives them in different places.

Common to all, as to assay: Microculture tetrazolium assay
Holding throughout (type): cell-based

In one test the test system is SKOV3. Conditions: read-out: IC50.
The test system of another test is SKVLB. Conditions: for VLB/OV3: IC50 ratio SKVLB/SKOV3; for IC50: SKVLB.
For a further test, the system named is T47D. Conditions: read-out: IC50.
The subject of another test is LOX. Conditions: read-out: IC50.
The test system of the next test is HT29. Conditions: read-out: IC50.

Turning to `C=COC(=O)NCCCO[C@@H]1O[C@@H](C(C)=O)CC2=C1C(=O)c1cc3ccccc3c(O)c1C2=O` (relative stereo) [BCH-2036], the IC50 in the test with SKOV3 (Homo sapiens, SK-OV-3, SKOV3) came out at 3.7 µM; in the test on SKVLB (read-out: IC50) it was 12.1 µM; in the test on T47D (Homo sapiens), 6.21 µM; with LOX, 5.4 µM; in the test on HT29 (Homo sapiens, HT-29, HT29) it was 3.38 µM. Also, in the test on SKVLB, the VLB/OV3 was determined as 3.27.
In the case of `CC(=O)OCC1(C2CC3=C(C(=O)c4cc5ccccc5c(O)c4C3=O)C(O[C@H]3C[C@H](NC(=O)C(F)(F)F)[C@H](O)[C@H](C)O3)O2)OCCCO1` (single isomer, unassigned) [BCH-747], the half-maximal inhibitory concentration (IC50) is 21 µM in the test on SKOV3 (Homo sapiens, SK-OV-3, SKOV3); 20.5 µM in the test with SKVLB (read-out: IC50); 18.1 µM with T47D (Homo sapiens); 18.5 µM in the test with LOX; 15.3 µM in the test with HT29 (Homo sapiens, HT-29, HT29). Also, the VLB/OV3 in the test with SKVLB came out at 0.98.
On to `CCOC(=O)C1CC2=C(CO1)C(=O)c1c(c(OC(C)=O)c3ccccc3c1OC(C)=O)C2=O` (centres unmarked) [BCH-655, Ethyl[6,11-diacetoxy-B,12-dioxo-3,4,5,12-tetrahydroanthraceno (2,3-c)pyran-3-yl]formate], for which the half-inhibitory concentration (IC50) with SKOV3 (Homo sapiens, SK-OV-3, SKOV3) is above 100 µM; in the test with SKVLB (read-out: IC50), above 100 µM; with T47D (Homo sapiens) it was above 100 µM; in the test on LOX, above 100 µM; in the test with HT29 (Homo sapiens, HT-29, HT29), above 100 µM.
For `CCOC(=O)C1CC2=C(CO1)C(=O)c1c(cc3ccccc3c1OC(C)=O)C2=O` (centres unmarked) [BCH-656, Ethyl[11-acetoxy-5,12-dioxo-3,4,5,12-tetrahydro-anthraceno[2,3-c]pyran-3-yl]formate], the IC50 in the test with SKOV3 (Homo sapiens, SK-OV-3, SKOV3) was determined as 76.7 µM; in the test with SKVLB (read-out: IC50) it was 82.9 µM; with T47D (Homo sapiens), 65.6 µM; in the test with LOX it was 68.9 µM; in the test with HT29 (Homo sapiens, HT-29, HT29), 86.6 µM. Also, the VLB/OV3 in the test with SKVLB is recorded as 1.08.
In the case of `CCOC(=O)C1CC2=C(CO1)C(=O)c1cc3ccccc3c(OC(C)=O)c1C2=O` (centres unmarked) [BCH-659, Ethyl(6-acetoxy-5,12-dioxo-3,4,5,12-tetrahydroanthraceno[2,3-c]pyran-3-yl)formate], the IC50 in the test with SKOV3 (Homo sapiens, SK-OV-3, SKOV3) was 4.53 µM; with SKVLB (read-out: IC50), 2.54 µM; in the test with T47D (Homo sapiens) it was 3.83 µM; with LOX, 4.82 µM; with HT29 (Homo sapiens, HT-29, HT29) it was 2.36 µM. For the same compound, the VLB/OV3 in the test on SKVLB is 0.56.
Regarding `COCOCC(=O)C1CC2=C(CO1)C(=O)c1c(c(OC(C)=O)c3ccccc3c1OC(C)=O)C2=O` (centres unmarked) [BCH-695, 6,11-diacetoxy-3-(2-methoxymethoxy)aceto-1,2,3,4-tetrahydro-(2-oxygen)naphthacene-5,12-dione], the IC50 in the test on SKOV3 (Homo sapiens, SK-OV-3, SKOV3) came to 30.8 µM; in the test with SKVLB (read-out: IC50), 15 µM; with T47D (Homo sapiens), 25.2 µM; with LOX, 21.5 µM; in the test on HT29 (Homo sapiens, HT-29, HT29), 11.4 µM. The VLB/OV3 with SKVLB worked out at 0.49.
For the compound `COCOCC(=O)C1CC2=C(CO1)C(=O)c1cc3ccccc3c(O)c1C2=O` (centres unmarked) [BCH-697, 3-(2-methoxymethoxy)aceto-6-hydroxy-1,2,3,4-tetrahydro-(2-oxygen)napthacene-5,12-dione], the IC50 with SKOV3 (Homo sapiens, SK-OV-3, SKOV3) stood at 15.5 µM; in the test on SKVLB, 10.6 µM; with T47D (Homo sapiens), 13 µM; in the test with LOX it was 12.6 µM; in the test on HT29 (Homo sapiens, HT-29, HT29), 6.04 µM. The VLB/OV3 in the test on SKVLB was determined as 0.68.
Consider `C=CC1CC2=C(C(=O)c3cc4ccccc4c(OC(C)=O)c3C2=O)C(OC)O1` (centres unmarked) [BCH-716, 6-acetoxy-1-methoxy-1,2,3,4-tetrahydro-3-vinyl-(2-oxygen)naphthacene-5,12-dione], for which the IC50 in the test with SKOV3 (Homo sapiens, SK-OV-3, SKOV3) is above 100 µM; in the test on SKVLB (read-out: IC50), 85.5 µM; in the test with T47D (Homo sapiens), 70.3 µM; with LOX, 41.6 µM; in the test on HT29 (Homo sapiens, HT-29, HT29), above 100 µM.
On to `CC(=O)[C@H]1CC2=C(C(=O)c3cc4ccccc4c(O)c3C2=O)[C@H](O[C@H]2C[C@H](NC(=O)C(F)(F)F)[C@H](O)[C@H](C)O2)O1` [BCH-724, (1S',1S,3R)-Methyl-(6-hydroxy-1-(3'-trifluoroacyldaunosamine)-5,12-dioxo-3,4,5,12-tetrahydroanthraceno[2,3-C]pyran-3-yl) ketone], for which the IC50 in the test on SKOV3 (Homo sapiens, SK-OV-3, SKOV3) was found to be 3.15 µM; in the test on SKVLB (read-out: IC50), 1.64 µM; with T47D (Homo sapiens), 3.89 µM; in the test with LOX it was 1.49 µM; in the test with HT29 (Homo sapiens, HT-29, HT29) it was 0.727 µM. Also, the VLB/OV3 in the test on SKVLB is reported as 0.52.
With `COCOCC(=O)C1CC2=C(C(=O)c3cc4ccccc4c(O)c3C2=O)C(O[C@H]2C[C@H](NC(=O)C(F)(F)F)[C@H](OC(=O)c3ccc([N+](=O)[O-])cc3)[C@H](C)O2)O1` (some centres unmarked) [BCH-732], the IC50 in the test on SKOV3 (Homo sapiens, SK-OV-3, SKOV3) is 38.5 µM; with SKVLB (read-out: IC50) it was 100 µM; with T47D (Homo sapiens), 100 µM; in the test on LOX, 48 µM; in the test on HT29 (Homo sapiens, HT-29, HT29), 38.4 µM.
In the case of `CC(=O)OCC1(C2CC3=C(C(=O)c4c(cc5ccccc5c4OC(C)=O)C3=O)C(O)O2)OCCCO1` (centres unmarked) [BCH-733], the IC50 in the test with SKOV3 (SKOV3) was determined as 4.3 µM; in the test on SKVLB (read-out: IC50) it was 6.96 µM; in the test on T47D, 5.51 µM; with LOX, 6.07 µM; in the test with HT29 (HT29) it was 2.01 µM. For the same compound, in the test on SKVLB, the VLB/OV3 is recorded as 1.62.
With `CC(=O)OCC1(C2CC3=C(C(=O)c4cc5ccccc5c(OC(C)=O)c4C3=O)C(O)O2)OCCCO1` (centres unmarked) [BCH-734], the IC50 with SKOV3 (SKOV3) turned out to be 8.82 µM; with SKVLB (read-out: IC50), 8.97 µM; with T47D, 6.41 µM; in the test on LOX, 9.76 µM; in the test on HT29 (HT29) it was 5.77 µM. The VLB/OV3 with SKVLB was found to be 1.02.
For the compound `CC(=O)OCC1(C2CC3=C(C(=O)c4c(cc5ccccc5c4O)C3=O)C(O[C@H]3C[C@H](NC(=O)C(F)(F)F)[C@H](O)[C@H](C)O3)O2)OCCCO1` (some centres unmarked) [BCH-748], the IC50 in the test on SKOV3 (Homo sapiens, SK-OV-3, SKOV3) came to 4.9 µM; in the test on SKVLB (read-out: IC50), 8.41 µM; in the test with T47D (Homo sapiens), 7.73 µM; with LOX it was 10.1 µM; in the test with HT29 (Homo sapiens, HT-29, HT29), 5.99 µM. For the same compound, in the test on SKVLB, the VLB/OV3 stood at 1.72.
Consider `CC1(C2CC3=C(CO2)C(=O)c2c(cc4ccccc4c2O)C3=O)OCCCO1` (centres unmarked) [BCH-1108], for which the IC50 in the test on SKOV3 (Homo sapiens, SK-OV-3, SKOV3) worked out at 1.5 µM; in the test with SKVLB (read-out: IC50), 2.31 µM; in the test with T47D (Homo sapiens), 3.83 µM; in the test with LOX, 100 µM; in the test on HT29 (Homo sapiens, HT-29, HT29), 2.8 µM. For the same compound, in the test with SKVLB, the VLB/OV3 came to 1.5.
Turning to `CC1(C2CC3=C(CO2)C(=O)c2cc4ccccc4c(O)c2C3=O)OCCCO1` (centres unmarked) [BCH-1109], the IC50 is 62.3 µM in the test on SKOV3 (Homo sapiens, SK-OV-3, SKOV3); 100 µM with SKVLB (read-out: IC50); 47.1 µM with T47D (Homo sapiens); 76 µM in the test with LOX; 62.6 µM in the test on HT29 (Homo sapiens, HT-29, HT29).
For `CC(=O)Oc1c2c(c(O)c3ccccc13)C(=O)C1=C(CC(C3(C)OCCCO3)OC1)C2=O` (centres unmarked) [BCH-1110] the same measures were 100 µM, 100 µM, 100 µM, 100 µM and 28.9 µM.
Taken in the same sequence, the figures for `CC(=O)Oc1c2c(c(O)c3ccccc13)C(=O)C1=C(COC(C3(C)OCCCO3)C1)C2=O` (centres unmarked) [BCH-1111] were 100 µM, 56.3 µM, 100 µM, 98.5 µM and 100 µM.
Take `CC1(C2CC3=C(CO2)C(=O)c2c(cc4ccccc4c2O)C3=O)OCCO1` (centres unmarked) [BCH-1112]: the IC50 worked out at 5.16 µM with SKOV3 (Homo sapiens, SK-OV-3, SKOV3); 2.83 µM with SKVLB (read-out: IC50); 9.09 µM in the test on T47D (Homo sapiens); 5.32 µM with LOX; 5.47 µM in the test on HT29 (Homo sapiens, HT-29, HT29). In addition, the VLB/OV3 with SKVLB stood at 0.55.
Consider `CC1(C2Cc3c(O)c4c(c(O)c3CO2)C(=O)c2ccccc2C4=O)OCCO1` (centres unmarked) [BCH-1114], for which the IC50 in the test with SKOV3 (Homo sapiens, SK-OV-3, SKOV3) is 64.6 µM; in the test with SKVLB (read-out: IC50), 100 µM; with T47D (Homo sapiens) it was 100 µM; in the test on LOX, 100 µM; in the test on HT29 (Homo sapiens, HT-29, HT29) it was 68.9 µM.
